From patent US8329904B2, “Azacyclic derivatives” (Hoffmann-La Roche Inc., priority 2009, dated 2012) come the findings set out here.

What is called IC50 is the concentration that gives 50% inhibition.

Structures are written as SMILES.

The assay concerns the target T1, human HSL (Homo sapiens, UniProt Q05469).
T1 construct: overlapping PCR to generate a full length human HSL ORF with a 3′-His6 tag; His6 (C); made in house; host or cells: High 5 insect cells (baculovirus, pFast-BAC)
T1 sequence (Q05469 1-1076): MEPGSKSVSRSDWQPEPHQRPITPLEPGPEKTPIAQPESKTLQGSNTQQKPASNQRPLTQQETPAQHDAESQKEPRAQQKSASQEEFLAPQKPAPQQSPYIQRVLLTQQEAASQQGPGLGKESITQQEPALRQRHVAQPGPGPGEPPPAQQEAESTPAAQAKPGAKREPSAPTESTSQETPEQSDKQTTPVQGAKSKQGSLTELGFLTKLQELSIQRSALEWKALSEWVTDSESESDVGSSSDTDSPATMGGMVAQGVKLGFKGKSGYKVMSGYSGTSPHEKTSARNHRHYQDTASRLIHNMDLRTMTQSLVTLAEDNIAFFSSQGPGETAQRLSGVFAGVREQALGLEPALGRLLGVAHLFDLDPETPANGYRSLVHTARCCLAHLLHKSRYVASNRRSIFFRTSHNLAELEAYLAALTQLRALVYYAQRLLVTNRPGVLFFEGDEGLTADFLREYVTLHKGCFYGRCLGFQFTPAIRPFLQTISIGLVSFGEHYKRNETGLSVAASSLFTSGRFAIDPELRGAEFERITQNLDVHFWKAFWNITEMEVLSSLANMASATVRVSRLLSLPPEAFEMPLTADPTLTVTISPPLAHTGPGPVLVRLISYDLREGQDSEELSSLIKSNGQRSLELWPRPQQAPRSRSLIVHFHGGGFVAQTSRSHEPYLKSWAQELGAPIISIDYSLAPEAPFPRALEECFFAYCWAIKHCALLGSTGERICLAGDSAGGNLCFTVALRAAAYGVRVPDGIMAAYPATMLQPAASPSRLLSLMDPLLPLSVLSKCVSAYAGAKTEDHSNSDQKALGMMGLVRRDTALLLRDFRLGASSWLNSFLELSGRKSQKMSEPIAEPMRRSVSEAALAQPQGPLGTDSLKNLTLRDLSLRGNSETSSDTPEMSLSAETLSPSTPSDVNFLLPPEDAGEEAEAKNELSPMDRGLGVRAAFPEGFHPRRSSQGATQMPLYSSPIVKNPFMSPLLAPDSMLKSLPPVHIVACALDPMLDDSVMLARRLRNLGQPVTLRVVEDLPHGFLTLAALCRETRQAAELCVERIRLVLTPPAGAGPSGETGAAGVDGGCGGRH
In words: Human Hormone-Sensitive Lipase (HSL) Enzyme Inhibition Assay. The assay is classed as biochemical. The settings on record: colorimetric assay, 2,3-dimercapto-1-propanol tributyrate (DMPT) substrate, 37° C. for 20 minutes, absorbance at 405 nm; read-out: HSL hum IC50. As to the method:
Production of Human Full Length Hormone Sensitive Lipase-His^6
1) Cloning: cDNA was prepared from commercial human brain polyA-+ RNA and used as a template in overlapping PCR to generate a full length human HSL ORF with a 3′-His6 tag. This full length insert was cloned into the pFast-BAC vector and the DNA-sequence of several single clones was verified. DNA from a correct full length clone with the 3′His6 tag was used to transform the E. coli strain DH10BAC. Resulting bacmid DNA was used to generate a titered baculovirus stock for protein generation.
Cells were thawed. […] was done at 3×30 sec., Lubrol PX was added to 0.2% final concentration followed by stirring for 15 min. at 4° C. and centrifugation at 25 k×g, 60 min., 4° C. […] Supernatant was removed, the resin washed in the centrifuge vessel using 5 volumes of Base Buffer containing 0.2% Lubrol PX. Centrifugation was done again, then the supernatant discarded. The resin wass poured onto a 0.8 μm membrane in a disposable filter unit (Nalge 450-0080), and washed with 5 volumes of Base Buffer containing 0.2% Lubrol PX. It was then washed with 30 volumes of Base Buffer containing 60 mM imidazole pH 7.5 at 4° C. The protein was eluated with 5 volumes of 25 mM Tris-Cl, 300 mM NaCl, 200 mM imidazole, 10 mM 2-mercaptoethanol, pH 7.5 at 4° C. by tumbling resin with buffer end-over-end, 30 min., 4° C. The resin was captured on a 0.2 μm membrane disposable filter unit (Millipore SCGP U02 RE) and the eluate collected in the reservoir. The eluate was concentrated using a 30 k MWCO centrifugal filter device (Sartorius Vivascience Vivacell 100, VC1022), to 20 ml. It was then dialyzed overnight at 4° C., two times against 2 L of 10% glycerol, 25 mM Tris-Cl, 300 mM NaCl, 0.2 mM EDTA, 0.2 mM DTT, pH 7.5 at 4° C. The protein was filtered using a 0.22 μm disposable filter unit (Millipore SCGP00525). The protein concentration was calculated from absorbance at 280 nm, using 280=0.67 cm-1 mg-1. […] The protein was stored at −80° C.
Human Hormone-Sensitive Lipase (HSL) Enzyme Inhibition Assay:
HSL enzyme activity was measured by a colorimetric assay using 2,3-dimercapto-1-propanol tributyrate (Aldrich, St. Louis, Mo.) as a substrate. Typically, 1.5 mM 2,3-dimercapto-1-propanol tributyrate (DMPT) in 100 mM MOPS, pH 7.2, 0.2 mg/ml fatty acid-free BSA was prepared by sonication at 4° C. to homogenous suspension. Test compounds (2 mM stock in DMSO) were diluted 3 fold in series in DMSO. Compound solutions were diluted 24 fold in 1.5 mM DMPT containing solution and 18 ul per well was added to 384-well microplates (Corning Costar). Twelve microliters per well of human HSL (15 ug/ml) was added and the reaction mixture was incubated at 37° C. for 20 minutes. Six microliters of 12 mM dithio-bis-(2-nitrobenzoic acid) (DTNB) in DMSO plus 1.2% SDS and 0.6% Triton X-100 were added and the mixture was incubated at room temperature for 15 minutes. Product production was monitored by reading absorbance at 405 nm on an Envision Reader (PerkinElmer Life and Analytical Sciences, Shelton, Conn.).
As for `O=C(N1CCCCC1)N1CCC2(CC1)CCN(c1ccc(OC(F)(F)F)cc1)C2=O` [Example 256, 8-(Piperidine-1-carbonyl)-2-(4-trifluoromethoxy-phenyl)-2,8-diaza-spiro[4.5]decan-1-one], the IC50 was determined as 0.1 µM.
As for `O=C1N(c2ccc(OC(F)(F)F)cc2)CCC12CCN(S(=O)(=O)c1cccnc1)CC2` [Example 187, 8-(Pyridine-3-sulfonyl)-2-(4-trifluoromethoxy-phenyl)-2,8-diaza-spiro[4.5]decan-1-one], the IC50 came to 0.03 µM.
Next, `O=C1N(c2ccc(OC(F)(F)F)cc2)CCC12CCN(S(=O)(=O)c1cccnc1NC1CC1)CC2` [Example 191, 8-(2-Cyclopropylamino-pyridine-3-sulfonyl)-2-(4-trifluoromethoxy-phenyl)-2,8-diaza-spiro[4.5]decan-1-one]: 0.08 µM.
Regarding `CN(c1ccccc1)S(=O)(=O)N1CCC2(CCN(c3ccc(OC(F)(F)F)cc3)C2=O)CC1` [Example 295, 1-Oxo-2-(4-trifluoromethoxy-phenyl)-2,8-diaza-spiro[4.5]decane-8-sulfonic acid methyl-phenyl-amide], the half-inhibitory concentration (IC50) amounted to 0.07 µM.
In the case of `CCS(=O)(=O)c1ccc(N2CCC3(CCN(S(=O)(=O)CC(C)(C)C)CC3)C2=O)cc1` [Example 172, 8-(2,2-Dimethyl-propane-1-sulfonyl)-2-(4-ethanesulfonyl-phenyl)-2,8-diaza-spiro[4.5]decan-1-one] it was 0.77 µM; in that of `CCCc1ccc(N2CCC3(CCN(C(=O)CC(C)(C)C)CC3)C2=O)cc1` [Example 31, 8-(3,3-Dimethyl-butyryl)-2-(4-propyl-phenyl)-2,8-diaza-spiro[4.5]decan-1-one], 0.08 µM; in that of `O=C1N(c2ccc(C(F)(F)F)cc2)CCCC12CCN(S(=O)(=O)c1ccccc1Cl)CC2` [Example 158, 9-(2-Chloro-benzenesulfonyl)-2-(4-trifluoromethyl-phenyl)-2,9-diaza-spiro[5.5]undecan-1-one], 0.12 µM.
For `CCc1ccc(N2CCC3(CCN(S(=O)(=O)c4ccccc4S(C)(=O)=O)CC3)C2=O)cc1` [Example 52, 2-(4-Ethyl-phenyl)-8-(2-methanesulfonyl-benzenesulfonyl)-2,8-diaza-spiro[4.5]decan-1-one], the half-maximal inhibitory concentration (IC50) worked out at 0.21 µM.
In the case of `CC(C)CS(=O)(=O)N1CCC2(CCN(c3ccc(C(C)(O)C(F)(F)F)cc3)C2=O)CC1` (stereo not drawn) [Example 168, 8-(isobutylsulfonyl)-2-(4-(1,1,1-trifluoro-2-hydroxypropan-2-yl)phenyl)-2,8-diazaspiro[4.5]decan-1-one], the IC50 worked out at 0.13 µM.
In the case of `CN(CCc1ccccn1)S(=O)(=O)N1CCC2(CCN(c3ccc(OC(F)(F)F)cc3)C2=O)CC1` [Example 298, 1-Oxo-2-(4-trifluoromethoxy-phenyl)-2,8-diaza-spiro[4.5]decane-8-sulfonic acid methyl-(2-pyridin-2-yl-ethyl)-amide] it was 0.16 µM; in that of `CCc1ccc(N2CCC3(CCN(S(=O)(=O)c4ccccc4C(F)(F)F)CC3)C2=O)cc1` [Example 67, 2-(4-Ethyl-phenyl)-8-(2-trifluoromethyl-benzenesulfonyl)-2,8-diaza-spiro[4.5]decan-1-one], 0.06 µM.
In the case of `CC(C)N(C)C(=O)c1ccc(N2CCC3(CCN(S(=O)(=O)c4ccccc4Cl)CC3)C2=O)cc1` [Example 161, 4-[8-(2-Chloro-benzenesulfonyl)-1-oxo-2,8-diaza-spiro[4.5]dec-2-yl]-N-isopropyl-N-methyl-benzamide] it was 0.38 µM.
In the case of `Cn1ncc2cc(N3CCC4(CCN(S(=O)(=O)c5ccccc5Cl)CC4)C3=O)ccc21` [Example 130, 8-(2-Chloro-benzenesulfonyl)-2-(1-methyl-1H-indazol-5-yl)-2,8-diaza-spiro[4.5]decan-1-one] it was 0.05 µM.
In the case of `N#CCc1ccc(N2CCC3(CCN(S(=O)(=O)c4ccccc4Cl)CC3)C2=O)cc1` [Example 135, {4-[8-(2-Chloro-benzenesulfonyl)-1-oxo-2,8-diaza-spiro[4.5]dec-2-yl]-phenyl}-acetonitrile], the IC50 worked out at 0.09 µM.
In the case of `O=C(NCCc1ccccc1)N1CCC2(CC1)CCN(c1ccc(OC(F)(F)F)cc1)C2=O` [Example 264, 1-Oxo-2-(4-trifluoromethoxy-phenyl)-2,8-diaza-spiro[4.5]decane-8-carboxylic acid phenethyl-amide] it was 0.14 µM.
In the case of `O=C(N1CCC2(CC1)CCN(c1ccc(OC(F)(F)F)cc1)C2=O)N1Cc2ccccc2C1` [Example 277, 8-(1,3-Dihydro-isoindole-2-carbonyl)-2-(4-trifluoromethoxy-phenyl)-2,8-diaza-spiro[4.5]decan-1-one] it was 0.26 µM.
In the case of `CC(O)(c1ccc(N2CCC3(CCN(S(=O)(=O)c4ccccc4C(F)(F)F)CC3)C2=O)cc1)C(F)(F)F` (stereo not drawn) [Example 169, 2-(4-(1,1,1-trifluoro-2-hydroxypropan-2-yl)phenyl)-8-(2-(trifluoromethyl)phenylsulfonyl)-2,8-diazaspiro[4.5]decan-1-one] it was 0.03 µM; in that of `O=C1N(c2ccc(OC(F)(F)F)cc2)CCC12CCN(S(=O)(=O)c1ccccc1Cl)CC2` [Example 1, 8-(2-Chloro-benzenesulfonyl)-2-(4-trifluoromethoxy-phenyl)-2,8-diaza-spiro[4.5]decan-1-one], 0.03 µM.
For `O=C1N(c2ccc(OC(F)(F)F)cc2)CCC12CCN(S(=O)(=O)c1cccnc1OCc1ccccc1)CC2` [Example 195, 8-(2-Benzyloxy-pyridine-3-sulfonyl)-2-(4-trifluoromethoxy-phenyl)-2,8-diaza-spiro[4.5]decan-1-one], the IC50 was 0.05 µM.
In the case of `O=C1N(c2ccc(OCCC(F)(F)F)nc2)CCC12CCN(S(=O)(=O)c1ccccc1Cl)CC2` [Example 116, 8-(2-Chloro-benzenesulfonyl)-2-[6-(3,3,3-trifluoro-propoxy)-pyridin-3-yl]-2,8-diaza-spiro[4.5]decan-1-one] it was 0.11 µM; in that of `CCCNC(=O)N1CCC2(CC1)CCN(c1ccc(OC(F)(F)F)cc1)C2=O` [Example 251, 1-Oxo-2-(4-trifluoromethoxy-phenyl)-2,8-diaza-spiro[4.5]decane-8-carboxylic acid propylamide], 0.47 µM.
